Results as given in ChEMBL document CHEMBL2440076, “New triarylpyrazoles as broad-spectrum anticancer agents: design, synthesis, and biological evaluation” (Eur J Med Chem, 2013).

Experiments:
Assay type in all cases: functional
[1] = system: LOX IMVI; assay: Growth inhibition of human LOXIMVI cells assessed as cell growth at 10^-7 M after 48 hrs by sulforhodamine B assay; details: read-out: Activity
[2] = system: KM12; assay: Growth inhibition of human KM12 cells assessed as cell growth at 10^-7 M after 48 hrs by sulforhodamine B assay; details: KM12, 48 h, read-out: Activity
[3] = system: TK-10; assay: Growth inhibition of human TK10 cells assessed as cell growth at 10^-4 M after 48 hrs by sulforhodamine B assay; details: TK-10, 48 h, read-out: Activity
[4] = system: SK-MEL-5; assay: Growth inhibition of human SK-MEL-5 cells assessed as cell growth at 10^-8 M after 48 hrs by sulforhodamine B assay; details: SK-MEL-5, 48 h, read-out: Activity
[5] = system: SNB-19; assay: Growth inhibition of human SNB19 cells assessed as cell growth at 10^-8 M after 48 hrs by sulforhodamine B assay; details: SNB-19, 48 h, read-out: Activity
[6] = system: NCI-H23; assay: Growth inhibition of human NCI-H23 cells assessed as cell growth at 10^-4 M after 48 hrs by sulforhodamine B assay; details: NCI-H23, 48 h, read-out: Activity
[7] = system: UO-31; assay: Growth inhibition of human UO31 cells assessed as cell growth at 10^-5 M after 48 hrs by sulforhodamine B assay; details: UO-31, 48 h, read-out: Activity
[8] = system: SK-MEL-28; assay: Growth inhibition of human SK-MEL-28 cells assessed as cell growth at 10^-5 M after 48 hrs by sulforhodamine B assay; details: SK-MEL-28, 48 h, read-out: Activity
[9] = system: OVCAR-3; assay: Growth inhibition of human OVCAR3 cells assessed as cell growth at 10^-6 M after 48 hrs by sulforhodamine B assay; details: OVCAR-3, 48 h, read-out: Activity
[10] = system: HCT-15; assay: Growth inhibition of human HCT15 cells assessed as cell growth at 10^-6 M after 48 hrs by sulforhodamine B assay; details: HCT-15, 48 h, read-out: Activity
[11] = system: OVCAR-5; assay: Growth inhibition of human OVCAR5 cells assessed as cell growth at 10^-7 M after 48 hrs by sulforhodamine B assay; details: OVCAR-5, 48 h, read-out: Activity
[12] = system: MDA-MB-435; assay: Growth inhibition of human MDA-MB-435 cells assessed as cell growth at 10^-7 M after 48 hrs by sulforhodamine B assay; details: MDA-MB-435, 48 h, read-out: Activity
[13] = Growth inhibition of human NCI-ADR-RES cells assessed as cell growth at 10^-4 M after 48 hrs by sulforhodamine B assay; details: read-out: Activity

SMILES	growth at 0.1 µM [1] [%]	growth at 0.1 µM [2] [%]	growth at 100 µM [3] [%]	growth at 0.01 µM [4] [%]	growth at 0.01 µM [5] [%]	growth at 100 µM [6] [%]	growth at 10 µM [7] [%]	growth at 10 µM [8] [%]	growth at 1 µM [9] [%]	growth at 1 µM [10] [%]	growth at 0.1 µM [11] [%]	growth at 0.1 µM [12] [%]	growth at 100 µM [13] [%]
COc1cc(-c2nn(-c3cccc(NC(=O)c4ccccc4)c3)cc2-c2ccncc2)ccc1Cl	94	91	23	97	99	18	18	43	4	40	93	80	
COc1cc(-c2nn(-c3cccc(NC(=O)c4ccc(N5CCOCC5)c(C(F)(F)F)c4)c3)cc2-c2ccncc2)ccc1Cl	78	64	-7	95	92	-9	-5	14		27	93	-4	2
